{"source": "patent US20130115256A1", "about": "“METHODS FOR TREATING OR PREVENTING VASCULAR GRAFT FAILURE” (priority 2010, published 2013)", "key": {"[1]": {"tested_on": "mouse lung endothelial cells (MLEC)", "assay": "NO analysis (nitrite chemiluminescence)", "assay_type": "cell-based", "conditions": "physiological doses; 24 hours", "protocol": "To measure nitric oxide (NO) production, conditioned medium from mouse lung endothelial cells (MLEC) was examined at 24 hours after treatment with MMI-0100 ([…]; SEQ ID NO: 1). The medium was processed for the measurement of nitrite (NO2) by a NO-specific chemiluminescence analyzer (Sievers) as previously described (Muto, A. et al., J. Exp. Med., 2011, 208(3): 561-575, incorporated herein by reference in its entirety.)."}, "[2]": {"target": "T1, MKK4 (Homo sapiens, UniProt P45985)", "T1 construct": "purchased Millipore (KinaseProfiler service)", "T1 sequence (P45985 1-399)": "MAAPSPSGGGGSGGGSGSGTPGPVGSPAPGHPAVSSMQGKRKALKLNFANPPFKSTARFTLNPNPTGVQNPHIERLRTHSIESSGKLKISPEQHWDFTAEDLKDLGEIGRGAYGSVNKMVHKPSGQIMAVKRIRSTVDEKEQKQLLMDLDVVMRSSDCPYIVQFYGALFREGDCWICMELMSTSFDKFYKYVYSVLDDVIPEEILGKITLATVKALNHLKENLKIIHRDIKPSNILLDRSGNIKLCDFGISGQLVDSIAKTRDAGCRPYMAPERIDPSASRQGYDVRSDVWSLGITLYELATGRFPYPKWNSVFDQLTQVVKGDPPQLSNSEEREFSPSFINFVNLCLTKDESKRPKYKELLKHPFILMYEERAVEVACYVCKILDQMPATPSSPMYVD", "assay": "MKK4 radiometric kinase assay", "assay_type": "biochemical", "conditions": "MMI-0100 100 μM; remaining kinase activity", "from_the_text": "(§1) A commercial radiometric assay service was used to test the specificity and potency of MMI-0100 ([…]; SEQ ID NO: 1) by measuring its half maximal inhibitory concentrations (IC50). This quantitative assay measures how much MK2 inhibitor (MMI-0100; […] (SEQ ID NO: 1)) is needed to inhibit 50% of a given biological process or component of a process (i.e., an enzyme, cell, or cell receptor). Specifically, in these assays, a positively charged substrate is phosphorylated with a radiolabeled phosphate group from an ATP if the kinase is not inhibited by an inhibitor peptide. The positively charged substrate then is attracted to a negatively charged filter membrane, quantified with a scintillation counter, and compared to a 100% activity control. ATP concentrations within 15 μM of the apparent Km for ATP were chosen since an ATP concentration near the Km may allow for the kinases to have the same relative amount of phosphorylation activity. The individual conditions for each radiometric assay are as follows.\nThe reaction was initiated by the addition of the MgATP. After incubation for 40 minutes at room temperature, 5 μl of the incubation mix was used to initiate the JNK radiometric assay described above.\nIC50 values for inhibitor peptides were determined using Millipore's IC50 Profiler Express service. The IC50 value was estimated from a 10-point curve of one-half log dilutions. […]"}, "[3]": {"target": "T2, MK2 (Homo sapiens, UniProt P49137)", "T2 construct": "purchased Millipore (IC50 Profiler Express / KinaseProfiler service)", "T2 sequence (P49137 whole entry, species assumed)": "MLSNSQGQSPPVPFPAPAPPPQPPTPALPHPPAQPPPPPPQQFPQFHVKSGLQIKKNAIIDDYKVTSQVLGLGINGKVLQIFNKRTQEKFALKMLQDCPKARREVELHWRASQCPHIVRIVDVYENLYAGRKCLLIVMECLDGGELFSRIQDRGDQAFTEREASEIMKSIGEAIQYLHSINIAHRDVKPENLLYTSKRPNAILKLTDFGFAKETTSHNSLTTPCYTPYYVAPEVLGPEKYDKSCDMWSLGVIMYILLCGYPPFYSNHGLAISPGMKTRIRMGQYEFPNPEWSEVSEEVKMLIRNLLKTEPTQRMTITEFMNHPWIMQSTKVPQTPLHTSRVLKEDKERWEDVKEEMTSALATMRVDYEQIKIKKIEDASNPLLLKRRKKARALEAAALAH", "assay": "MK2 radiometric kinase assay", "assay_type": "biochemical", "from_the_text": "as §1, with “The individual conditions for each radiometric assay are as follows.” left out\nFor the MK2 radiometric assay, 5-10 mU of MK2 was incubated with 50 mM Na b-glycerophosphate pH 7.5, 0.1 mM EGTA, 30 μM KKLNRTLSVA (SEQ ID NO: 34; a substrate peptide for MK2), 10 mM MgAcetate, and 10 μM of [y-^33P-ATP] in a final reaction volume of 25 μl. […] The washed P30 filtermat was dried and its radioactivity was measured by scintillation counter.\nIC50 values for inhibitor peptides were determined using Millipore's IC50 Profiler Express service. […]"}}}
{"sequence": "YARAAARQARAKALARQLGVAA [MMI-0100]", "values": [{"measurement": "Nitric oxide (NO) production", "setting": "[1]", "value": "not suppressed, and was even enhanced"}, {"measurement": "Percent Activity, MKK4", "setting": "[2]", "value": 90, "unit": "%"}, {"measurement": "Percent Activity, MK2", "setting": "[3]; MMI-0100 100 μM, remaining kinase activity", "value": "<5", "unit": "%"}, {"measurement": "inhibition of MK2 activity", "setting": "[3]; concentration used for specificity profiling (Table 2, 100 μM)", "value": "> 95", "unit": "%"}]}
